# Assay results from the supplement of paper PMC10307832.
# Columns and labels:
# Test in all cases: relative viability (nuclei count vs DMSO), 5 days (fraction); higher = more cells survive
# [1] = compound: CC(C)=CC[C@@H](O)C1=CC(=O)c2c(O)ccc(O)c2C1=O [Shikonin] + Cc1cc(Nc2cc(N3CCN(C)CC3)nc(Sc3ccc(NC(=O)C4CC4)cc3)n2)n[nH]1 [Tozasertib] (partner 0.1 µM)
# Summary of the method: (§1)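 Lung cancer cell lines in 1536-well plates got either a single drug or a fixed anchor-drug dose together with five library-drug doses (not always all listed) in √10 steps, by pin tool, on the day after seeding. Nuclei were counted after 5 days, and relative viability is the treated-to-vehicle ratio of nuclei counts. Values are medians of duplicate plates.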
# [2] = compound: CC(C)N(CCCNC(=O)Nc1ccc(C(C)(C)C)cc1)C[C@H]1O[C@@H](n2ccc3c(N)ncnc32)[C@H](O)[C@@H]1O + C[C@]1(O)C[C@@H](c2nc(-c3ccc4ccc(-c5ccccc5)nc4c3)c3c(N)nccn32)C1 [Linsitinib] (partner 1 µM)
# Summary of the method: as §1
# [3] = compound: CC(C)N(CCCNC(=O)Nc1ccc(C(C)(C)C)cc1)C[C@H]1O[C@@H](n2ccc3c(N)ncnc32)[C@H](O)[C@@H]1O + CC(=O)c1c(C)c2cnc(Nc3ccc(N4CCNCC4)cn3)nc2n(C2CCCC2)c1=O [Palbociclib] (partner 0.5 µM)
# Summary of the method: as §1
# [4] = compound: CC(C)N(CCCNC(=O)Nc1ccc(C(C)(C)C)cc1)C[C@H]1O[C@@H](n2ccc3c(N)ncnc32)[C@H](O)[C@@H]1O + CC1(C)CCC(c2ccc(Cl)cc2)=C(CN2CCN(c3ccc(C(=O)NS(=O)(=O)c4ccc(N[C@H](CCN5CCOCC5)CSc5ccccc5)c(S(=O)(=O)C(F)(F)F)c4)cc3)CC2)C1 [Navitoclax] (partner 0.5 µM)
# Summary of the method: as §1
Cell Line,relative viability ([1]; first compound 0.01 µM),relative viability ([1]; first compound 0.1 µM),relative viability ([1]; first compound 0.3162 µM),relative viability ([1]; first compound 1 µM),relative viability ([2]; first compound 0.08 µM),relative viability ([2]; first compound 0.253 µM),relative viability ([2]; first compound 0.8 µM),relative viability ([2]; first compound 2.53 µM),relative viability ([2]; first compound 8 µM),relative viability ([3]; first compound 0.08 µM),relative viability ([3]; first compound 0.253 µM),relative viability ([3]; first compound 0.8 µM),relative viability ([3]; first compound 2.53 µM),relative viability ([3]; first compound 8 µM),relative viability ([4]; first compound 0.08 µM),relative viability ([4]; first compound 0.253 µM),relative viability ([4]; first compound 0.8 µM),relative viability ([4]; first compound 2.53 µM),relative viability ([4]; first compound 8 µM)
NCI-H838,0.289,0.264,0.257,0.29,0.938,0.952,0.99,1.01,0.875,0.217,0.178,0.182,0.247,0.251,1.12,1.1,1.2,1.15,1.14
HCC-15,0.459,0.445,0.33,0.465,0.84,0.908,0.909,0.9,0.859,0.759,0.709,0.802,0.712,0.724,0.653,0.717,0.733,0.707,0.673
NCI-H460,0.456,0.496,0.483,0.414,0.722,0.775,0.627,0.66,0.678,0.207,0.201,0.139,0.181,0.111,1.01,1.16,1.12,1.27,0.9
EPLC-272H,0.226,0.215,0.249,0.191,1.12,1.09,1.05,1.03,1.05,0.365,0.342,0.366,0.36,0.398,1.03,0.981,0.989,1.12,1.02
